# In patent US9096832B2, “Differentiation of human embryonic stem cells” (LifeScan, Inc., priority 2007, dated 2015):
# B1: Wnt-7a: Wnt ligand, Catalog#3008-WN-025, R&D Systems (protein, UniProt O00755 32-349, looked up)
# Protein Wnt-7a: LGASIICNKIPGLAPRQRAICQSRPDAIIVIGEGSQMGLDECQFQFRNGRWNCSALGERTVFGKELKVGSREAAFTYAIIAAGVAHAITAACTQGNLSDCGCDKEKQGQYHRDEGWKWGGCSADIRYGIGFAKVFVDAREIKQNARTLMNLHNNEAGRKILEENMKLECKCHGVSGSCTTKTCWTTLPQFRELGYVLKDKYNEAVHVEPVRASRNKRPTFLKIKKPLSYRKPMDTDLVYIEKSPNYCEEDPVTGSVGTQGRACNKTAPQASGCDLMCCGRGYNTHQYARVWQCNCKFHWCCYVKCNTCSERTEMYTCK
# B2: Group 2: Activin A (100 ng/ml) (protein, UniProt P08476 311-426, looked up)
# Inhibin beta A chain: GLECDGKVNICCKKQFFVSFKDIGWNDWIIAPSGYHANYCEGECPSHIAGTSGSSLSFHSTVINHYRMRGHSPFANLKSCCVPTKLRPMSMLYYDDGQNIIKKDIQNMIVEECGCS
# B3: Wnt-5b: Wnt ligand, Catalog#3006-WN-025, R&D Systems (protein, UniProt Q9H1J7 18-359, looked up)
# Protein Wnt-5b: QLLTDANSWWSLALNPVQRPEMFIIGAQPVCSQLPGLSPGQRKLCQLYQEHMAYIGEGAKTGIKECQHQFRQRRWNCSTADNASVFGRVMQIGSRETAFTHAVSAAGVVNAISRACREGELSTCGCSRTARPKDLPRDWLWGGCGDNVEYGYRFAKEFVDAREREKNFAKGSEEQGRVLMNLQNNEAGRRAVYKMADVACKCHGVSGSCSLKTCWLQLAEFRKVGDRLKEKYDSAAAMRVTRKGRLELVNSRFTQPTPEDLVYVDPSPDYCLRNESTGSLGTQGRLCNKTSEGMDGCELMCCGRGYNQFKSVQVERCHCKFHWCCFVRCKKCTEIVDQYICK
# B4: FGF10: fibroblast growth factor FGF10, 50 ng/ml (protein, UniProt O15520 38-208, looked up)
# Fibroblast growth factor 10: QALGQDMVSPEATNSSSSSFSSPSSAGRHVRSYNHLQGDVRWRKLFSFTKYFLKIEKNGKVSGTKKENCPYSILEITSVEIGVVAVKAINSNYYLAMNKKGKLYGSKEFNNDCKLKERIEENGYNTYASFNWQHNGRQMYVALNGKGAPRRGQKTRRKNTSAHFLPMVVHS
# B5: Wnt 5a: Wnt ligand, Catalog#654-WN-010, R&D Systems (protein, UniProt P22725 62-380, looked up)
# Protein Wnt-5a: IIGAQPLCSQLAGLSQGQKKLCHLYQDHMQYIGEGAKTGIKECQYQFRHRRWNCSTVDNTSVFGRVMQIGSRETAFTYAVSAAGVVNAMSRACREGELSTCGCSRAARPKDLPRDWLWGGCGDNIDYGYRFAKEFVDARERERIHAKGSYESARILMNLHNNEAGRRTVYNLADVACKCHGVSGSCSLKTCWLQLADFRKVGDALKEKYDSAAAMRLNSRGKLVQVNSRFNSPTTQDLVYIDPSPDYCVRNESTGSLGTQGRLCNKTSEGMDGCELMCCGRGYDQFKTVQTERCHCKFHWCCYVKCKKCTEIVDQFVCK
# Assays:
# [1] = tested on: H9P49 embryonic stem cells; experiment: Pancreatic endoderm under feeder-free conditions: retinoic acid analogues (real-time PCR); format: cell-based, human
# Description: At day 5, cells were collected for evaluation by FACS and real-time PCR. […] The resulting definitive endoderm cells at day 5 were exposed to the following media conditions to induce pancreatic endoderm formation: culturing in DMEM/F12 media supplemented with 2% FBS and 1 μM all-trans retinoic acid (RA) (Catalog#R2625, Sigma, MO), or 0.1-10 μM AM-580 (4-[(5,6,7,8-Tetrahydro-5,5,8,8-tetramethyl-2-naphthalenyl)carboxamido]benzoic acid, Catalog#A8843, Sigma, MO), or 0.1-1 μM TTNPB (4-[(E)-2-(5,6,7,8-Tetrahydro-5,5,8,8-tetramethyl-2-naphthalenyl)-1-propenyl]benzoic acid Arotinoid acid, Catalog#T3757, Sigma, MO) for 3 days. AM-580 and TTNPB are retinoic acid analogs with affinity for retinoic acid receptors. RA treatment was followed by additional three day treatment in DMEM/F 12 media supplemented with 2% FBS and 20-50 ng/ml bFGF (Catalog#F0291, Sigma, MO).
# [2] = tested on: human embryonic stem cell line H1 at passage 55; experiment: Definitive endoderm on human serum coated plates (real-time PCR); format: cell-based; settings: with activin A, vs activin A only
# Description: Cultures of the human embryonic stem cell line H1 at passage 55 were grown and differentiated on human serum (Sigma, #H1388, MO) coated plates. 0.5 ml of human serum was added to each well of 6 well tissue culture treated dish, incubated for 1 hr at room temperature, and aspirated before adding human embryonic stem cells. […] These findings parallel our findings for human embryonic stem cells cultured on […]™ or human fibronectin coated plates.
# [3] = tested on: H9P46-P48 embryonic stem cells; experiment: Definitive endoderm on […]: effect of GSK-3B inhibitor IX (FACS CXCR4, PCR); format: cell-based, human; settings: day 5
# Description: In order to confirm that the effect of Wnt-3a was through the Wnt pathway, a GSK-3 inhibitor was used to activate the downstream targets of Wnt, such as beta catenin. […] FIG. 29, panel a depicts the expression of CXCR4 by FACS at day 5 in the absence of Wnt-3a or GSK-3B inhibitor, b) +20 ng/ml Wnt-3a, c) +1000 nM GSK-3B inhibitor IX, d) +500 nM GSK-3B inhibitor IX, e) +100 nM GSK-3B inhibitor IX, f) +10 nM GSK-3B inhibitor IX, g) +100 nM GSK-3B inhibitor IX for days 1-2, and h) +10 nM GSK-3B inhibitor IX for days 1-2.
# [4] = tested on: H1P54 ES cells; experiment: Evaluation of various GSK-3B inhibitors in DE formation (real-time PCR); format: cell-based, human; settings: 100 nM for first two days, compared to GSK-3B inhibitor VIII and XII
# Description: The effectiveness of a number of commercially available GSK-3B inhibitors was evaluated in formation of DE from human embryonic stem cells. The following GSK-3B inhibitors were evaluated at 100 nM: GSK-3B inhibitor VIII (Catalog#361549, Calbiochem, CA), GSK-3B inhibitor IX (Catalog#361550, Calbiochem, CA), GSK-3B inhibitor XI (Catalog#361553, Calbiochem, CA), GSK-3B inhibitor XII (Catalog#361554, Calbiochem, CA). […] Control cultures were treated with low serum plus high dose of AA. FIG. 47, panels a and b depicts the gene expression of definitive endoderm markers at day 5. GSK-3B inhibitor IX and XI were both effective in inducing DE formation as compared to GSK-3B inhibitor VIII and XII.
# [5] = tested on: human embryonic stem cell line H9; experiment: Formation of pancreatic endocrine cells with gamma-secretase inhibitor L-685,458 (PCR); format: cell-based
# Description: After this time interval, the cells were then treated for six days with combinations of retinoic acid and FGF as outlined in Example 2, then the culture medium was removed and replaced with medium comprising DMEM/F12 with 2% FBS, containing the γ-secretase inhibitors L-685,458 at 10 μM for three days.
# Final data were expressed relative to a calibrator sample.
# [6] = tested on: human embryonic stem cell line H9; settings: activin A or retinoic acid alone
# Description: Cultures were harvested and samples of mRNA were collected for analysis.
# Cells seeded on 0.1% Matrigel (BD) coated dishes were fixed with 4% paraformaldheyde for 20 min at room temperature. Fixed cells were blocked for 1 h at room temperature with PBS/0.1%BSA/10% normal chick serum /0.5% Triton X-100 and then incubated overnight with primary antibodies in PBS/0.1%BSA/10% normal chick serum at 4° C. After three washes in PBS/0.1% BSA, fluorescent secondary antibodies at a 1:100 dilution in PBS were incubated with cells for 1 h at room temperature to allow binding. Control samples included reactions where the primary antibody was omitted or where the primary antibody was replaced with corresponding matched negative control immunoglobulins at the same concentration as the primary antibodies. […]
# Real-time PCR amplification and quantitative analysis: Unless otherwise stated, all reagents were purchased from Applied Biosystems. […] For each primer/probe set, a Ct value was determined as the cycle number at which the fluorescence intensity reached a specific value in the middle of the exponential region of amplification. Relative gene expression levels were calculated using the comparative Ct method. […] The normalized amount of target was calculated as 2-ΔCt, assuming amplification to be 100% efficiency. […]
# [7] = tested on: H9P44 cells; experiment: Definitive endoderm on MEFs: growth factor combinations in low serum (FACS CXCR4, RT-PCR; Table V); format: cell-based, human; settings: H9P44 on MEF, Day 3, normalized to Group 1 (control)
# Description: H9P44 cells were plated onto 6 well plates previously coated with mitomycin treated mouse embryonic fibroblasts (MEF). Cells were grown until 70 to 80% confluency in ES cell medium consisting of DMEM/F12 (Invitrogen/GIBCO) supplemented with 20% knockout serum replacement, 100 nM MEM nonessential amino acids, 0.5 mM beta-mercaptoethanol, 2 mM L-glutamine (all from Invitrogen/GIBCO) and 8 ng/ml human basic fibroblast growth factor (bFGF) (R&D Systems).
# Growth factors were added to increasing concentration of FBS in a stepwise manner as indicated in the following regimen: • Day 0: 0% FBS in DMEM/F12 • Day 1: 0.5% FBS in DMEM/F12 • Day 2: 2% FBS in DMEM/F12. • Day 3: Cells were harvested for FACS analysis and RT-PCR.
# All growth factors were purchased from R&D Systems, MN. A detailed description and concentration of growth factors for each treatment group is shown below. • 1. Control—No growth factor added • 2. […] IL-4 (10 ng/ml) • 10. SDF1a (20 ng/ml) • 11. […] BMP2 (100 ng/ml)+BMP-4 (100 ng.ml)+BMP-6 (100 ng/ml)+BMP-7 (100 ng/ml) • 13.
# Cells were harvested on Day 3 of DE protocol treatment. For analysis, an aliquot of treated cells was used for RNA preparation for RT-PCR and the rest of cells used for FACS analysis.
# For RT-PCR analysis, cells were analyzed for expression of selected panel of definitive endoderm markers.
# [8] = tested on: H7P44 and H9P46 embryonic stem cells; experiment: Definitive endoderm on […]: role of Wnt ligands (FACS CXCR4, real-time PCR); format: cell-based, human; settings: low serum+AA+/-Wnt ligands, H7 and H9, five days
# Description: In some of the cultures 20 ng/ml Wnt-3a (Catalog#1324-WN-002, R&D Systems, MN), 20 ng/ml Wnt-5a (Catalog#654-WN-010, R&D Systems, MN), 25 ng/ml Wnt-7a (Catalog#3008-WN-025, R&D Systems, MN), or 25 ng/ml Wnt-5b (Catalog#3006-WN-025, R&D Systems, MN) was added throughout the five day treatment. FIG. 24 depicts phase contrast images of H9P46 definitive endoderm culture in the presence of high concentration of (a) AA or (b) AA+20 ng/ml Wnt-3a. FIG. 25 depicts the expression of CXCR4 by FACS at day 5 for H7P44, and H9P46 lines cultured on […]™ (1:30 dilution) and exposed to the DE protocol+Wnt-3a (FIG. 25, panels b and d) and −Wnt-3a (FIG. 25, panels a and c).
# [9] = tested on: pancreatic endoderm cells derived from human embryonic stem cells; experiment: Passage and expansion of pancreatic endoderm cells in culture with FGF10 (Q-PCR); format: cell-based; settings: 50 ng/ml FGF10, 6 day culture period
# Description: The low serum DMEM/F12 contained 0% (v/v) fetal bovine serum (FBS) on day 1, 0.5% (v/v) FBS on day two and 2% (v/v) FBS on each day thereafter. After four days of differentiation, the cells were cultured in low serum DMEM/F12 contained 2% (v/v) FBS, 1 μM retinoic acid and 50 ng/ml bFGF for a total of six more days. After the six days of differentiation, the cells were maintained in culture in low serum DMEM/F12 contained 2% (v/v) FBS in the presence of 50 ng/ml FGF10 for a total of 6 days. During the six-day culture period, the pancreatic endoderm cells were passaged twice and cell population-doubling time is about 36 to 48 hours during this 6-day culture. On days 0, 3, and 6 of culture, Q-PCR was used to measure the expression of marker genes indicative of pancreatic endoderm.
molecule,measurement,setting,value
"CC1(C)CCC(C)(C)c2cc(C(=O)Nc3ccc(C(=O)O)cc3)ccc21 [AM-580, 4-[(5,6,7,8-Tetrahydro-5,5,8,8-tetramethyl-2-naphthalenyl)carboxamido]benzoic acid]",AFP and CDX-2 expression,[1]; 10 μM AM-580,suppressed
same,expression of PDX-1,[1]; 10 μM AM-580,maintaining a high expression
O=C1Nc2cc(Br)ccc2/C1=C1/Nc2ccccc2/C1=N\O [GSK-3B inhibitor IX],expression of definitive endoderm markers,[2],Robust expression
same,number of CXCR4 positive cells,[3]; 20 ng/ml Wnt-3a or 100-1000 nM GSK-3B inhibitor,significantly increased
same,expression of CXCR4 by FACS,[3]; 10 nm GSK-3B inhibitor,very low
same,inducing DE formation,[4],effective
O=C1NC(=O)C(c2cn(CCCO)c3ncccc23)=C1c1cnccn1 [GSK-3B inhibitor XI],inducing DE formation,[4],effective
"CC(C)C[C@H](NC(=O)[C@H](Cc1ccccc1)C[C@@H](O)[C@H](Cc1ccccc1)NC(=O)OC(C)(C)C)C(=O)N[C@@H](Cc1ccccc1)C(N)=O [L-685,458]",NeuroD1 expression,"[5]; L-685,458 10 μM",increased further
same,expression of Hes-1,"[5]; L-685,458 10 μM",decrease
same,time of maximal inhibition of Hes-1 expression,"[5]; L-685,458 10 μM",day three post treatment
same,Ngn3 expression relative to activin A alone or retinoic acid with FGFs,"[5]; L-685,458 10 μM for three days",approximately 50 fold
same,increase of insulin expression,"[5]; L-685,458 10 μM for three days",70 fold
"CC1=C(/C=C/C(C)=C/C=C/C(C)=C/C(=O)O)C(C)(C)CCC1 [retinoic acid, all-trans retinoic acid]",expression of Pdx1,[6],did not induce
same,"foregut endoderm markers, such as CDX-2 and AFP",[1]; 1 μM RA followed by bFGF,robust expression
same,"pancreatic endoderm markers, such as PDX-1",[1]; 1 μM RA followed by bFGF,significantly upregulates
Group 9: IL-4 (10 ng/ml),CXCR4 relative expression,[7],1.4
same,Goosecoid relative expression,[7],0.9
same,HNF-3B relative expression,[7],0.89
same,Oct-4 relative expression,[7],0.85
same,SOX-2 relative expression,[7],1.2
same,Sox17 relative expression,[7],1
B1,expression of definitive endoderm markers (real-time PCR),[8],minimal impact
B2,CXCR4 relative expression,[7],19.5
same,Goosecoid relative expression,[7],2.8
same,HNF-3B relative expression,[7],0.64
same,Oct-4 relative expression,[7],1.1
same,SOX-2 relative expression,[7],0.91
same,Sox17 relative expression,[7],45
B3,expression of definitive endoderm markers (real-time PCR),[8],minimal impact
B4,expression of pancreatic endoderm marker Pdx1,[9],maintained expression
B5,expression of definitive endoderm markers (real-time PCR),[8],minimal impact
